Bounds are passed on as bounds.

Consider 27 compounds from US10882856B2 (BeiGene, Ltd., priority 2017, dated 2021).

In one assay the target is T1, TDO (Homo sapiens, UniProt P48775).
T1 construct: His tag (C); made in house; host or cells: E. coli
In words: TDO enzymatic assay. Particulars: read-out: Enzyme IC50 TDO. Type of assay: biochemical. The method, boiled down: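 Recombinant C-terminally His-tagged TDO purified from E. coli (100 nM) was tested with 0.5 mM L-tryptophan (Km concentration). Otherwise the IDO1 enzymatic set-up was used: ascorbic acid, methylene blue, catalase, and potassium phosphate pH 7.5 with BSA, incubated 1.5 hours. N'-formylkynurenine absorbance was read continuously at 321 nm, and activity was taken as the slope. IC50 was calculated from remaining enzyme activity across increasing compound concentrations.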

Assay [1] has as its target T2, IDO1 (Homo sapiens, UniProt P14902). In words: Hela cell-based IDO1 assay. Particulars: Hela cells. The essentials: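 HeLa cells were plated at 8000 per well in 96-well plates containing phenol red-free DMEM with 10% FBS, and after 4 hours compound dilutions made in DMSO were added together with IFN-γ (final 100 ng/mL) and 0.4 mM L-Trp before 48 hours at 37 °C, 5% CO2. Supernatants were deproteinised with trichloroacetic acid, mixed with 2% 4-(dimethylamino)benzaldehyde and read at 480 nm for kynurenine. Four-parameter logistic fits were run in XLfit. Potency was derived from these fits.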

Assay [2] deals with T3, cellular TDO2 in HEK293-TDO2 cells (Homo sapiens, UniProt P48775).
T3 construct: expressed in transfected cells; host or cells: HEK293 (ATCC), stably transfected
T3 sequence (P48775 whole entry): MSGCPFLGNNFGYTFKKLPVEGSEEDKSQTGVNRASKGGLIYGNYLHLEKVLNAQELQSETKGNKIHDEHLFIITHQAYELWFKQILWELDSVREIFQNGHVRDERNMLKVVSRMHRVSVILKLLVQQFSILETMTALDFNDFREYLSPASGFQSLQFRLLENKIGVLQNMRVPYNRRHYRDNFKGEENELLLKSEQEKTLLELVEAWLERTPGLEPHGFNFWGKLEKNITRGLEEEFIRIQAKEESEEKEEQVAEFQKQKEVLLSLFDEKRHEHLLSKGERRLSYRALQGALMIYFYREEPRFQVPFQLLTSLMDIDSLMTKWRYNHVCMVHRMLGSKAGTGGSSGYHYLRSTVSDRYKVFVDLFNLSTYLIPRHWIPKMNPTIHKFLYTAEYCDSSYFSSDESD
In words: 293-TDO2 cell-based assay (Kyn colorimetric). As to conditions: 48 hours of incubation. The method, boiled down:
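HEK293 cells stably expressing TDO2 (10000/well, phenol red-free DMEM, 10% FBS) were dosed 4 h after plating and incubated 48 h at 37° C. Supernatant Kyn was measured after TCA precipitation by 4-(dimethylamino)benzaldehyde colour at 480 nm. IC50 came from four-parameter logistic fits.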

For assay [3], the target named is T2, IDO1. Put plainly: IDO1 enzymatic assay. Type of assay: biochemical. Also noted: His tag (N); made in house; host or cells: E. coli. As to conditions: read-out: Enzyme IC50 IDO1. The method, boiled down:
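Compound was incubated with 50 nM His-tagged IDO1 from E. coli, 1.3 mM D-tryptophan, 5 mM L-ascorbic acid, methylene blue and 0.4 mg/mL catalase in 50 mM potassium phosphate pH 7.5, 0.1% BSA, at 24 °C for 1.5 hours. Activity was the slope of N'-formylkynurenine formation read continuously at 321 nm for 1 hour. IC50 was obtained from remaining activity versus compound concentration.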

T1 sequence (P48775 whole entry): as above
T2 sequence (P14902 whole entry): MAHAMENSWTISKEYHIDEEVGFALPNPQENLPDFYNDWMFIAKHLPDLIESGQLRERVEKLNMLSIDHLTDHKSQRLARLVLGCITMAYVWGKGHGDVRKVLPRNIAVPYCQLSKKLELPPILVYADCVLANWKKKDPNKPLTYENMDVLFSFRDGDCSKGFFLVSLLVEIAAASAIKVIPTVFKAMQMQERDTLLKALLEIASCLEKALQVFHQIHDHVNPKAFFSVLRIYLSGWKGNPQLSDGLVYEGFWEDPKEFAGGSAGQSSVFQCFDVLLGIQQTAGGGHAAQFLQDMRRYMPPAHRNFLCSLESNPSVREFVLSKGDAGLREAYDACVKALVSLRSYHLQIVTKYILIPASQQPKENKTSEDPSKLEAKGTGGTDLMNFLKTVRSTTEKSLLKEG

With `OCCn1cc(-c2ccc(N3CCC(C(O)c4c(C5CC5)ccn5cncc45)CC3)cc2)cn1` (stereo not drawn) [Example C153, 2-(4-(4-(4-((7-cyclopropylimidazo[1,5-a]pyridin-8-yl)(hydroxy)methyl)piperidin-1-yl)phenyl)-1H-pyrazol-1-yl)ethan-1-ol], the IC50 on TDO amounted to 6700 nM; at IDO1 [3], 47 nM. Also, the results for the EC50 (at IDO1 [1]; in assay [2]) were 1050 nM and greater than 10000 nM, respectively.

Take `Cc1ccccc1[C@H]1CC[C@H]([C@H](O)c2c(C3CC3)ccn3cncc23)CC1` (single isomer, unassigned) [Example C112a]: the IC50 was determined as 5100 nM at TDO and 40 nM on IDO1 [3]. Further, the EC50 on IDO1 [1] was 183 nM; in assay [2] it was greater than 10000 nM.

`O[C@H](c1c(C2CC2)ccc2cncn12)[C@H]1CC[C@H](c2ccc(OC(F)(F)F)cc2)CC1` (single isomer, unassigned) [Example D105a]: the values for the concentration for half-maximal inhibition (IC50) at TDO and at IDO1 [3] were 11000 nM and 44 nM, respectively. Moreover, the figures for the EC50 (on IDO1 [1]; in assay [2]) were 631 nM and greater than 10000 nM, respectively.

In the case of `O[C@H](c1c(C2CC2)ccc2cncn12)[C@H]1CC[C@H](c2ccc(F)cc2)CC1` (single isomer, unassigned) [Example D104a], the figures for the IC50 at TDO and on IDO1 [3] were 7500 nM and 18 nM, respectively. Besides, the EC50 is 23 nM at IDO1 [1] and greater than 10000 nM in assay [2].

`O[C@H](c1c(C2CC2)ccc2cncn12)[C@H]1CC[C@H](c2ccc(Br)cc2)CC1` (single isomer, unassigned) [Example D118a]: the IC50 on TDO amounted to 7700 nM; at IDO1 [3], 25 nM. The results for the concentration giving a half-maximal response (EC50) (at IDO1 [1]; in assay [2]) were 306 nM and greater than 10000 nM, respectively.

`COc1ccc([C@H]2CC[C@H]([C@H](O)c3c(C4CC4)ccc4cncn34)CC2)cc1` (single isomer, unassigned) [Example D102a]: the values for the IC50 at TDO and on IDO1 [3] were 5300 nM and 14 nM, respectively. For the same compound, the EC50 at IDO1 [1] is 29 nM; in assay [2], greater than 10000 nM.

In the case of `Oc1ccc([C@H]2CC[C@H](C(O)c3c(C4CC4)ccc4cncn34)CC2)cc1` (single isomer, unassigned) [Example D106a], the IC50 was 4000 nM at TDO and 11 nM at IDO1 [3]. Besides, the 50% effective concentration (EC50) on IDO1 [1] was 21 nM; in assay [2], greater than 10000 nM.

`O[C@H](c1c(C2CC2)ccn2cncc12)[C@H]1CC[C@H](c2cccc3ccccc32)CC1` (single isomer, unassigned) [Example C121a]: the IC50 on TDO was found to be 3600 nM; on IDO1 [3], 39 nM. Also, the EC50 on IDO1 [1] is 59 nM; in assay [2] it was greater than 10000 nM.

Consider `OC(c1c(C2CC2)ccc2cncn12)[C@H]1CC[C@H](c2ccc(OC3CCOCC3)cc2)CC1` (single isomer, unassigned) [Example D114c], for which the IC50 worked out at 5600 nM at TDO and 17 nM on IDO1 [3]. The EC50 on IDO1 [1] was 67 nM; in assay [2] it was greater than 10000 nM.

Take `O[C@H](c1c(C2CC2)ccc2cncn12)[C@H]1CC[C@H](c2cccc3ncccc32)CC1` (single isomer, unassigned) [Example D141a]: the IC50 at TDO came to 6100 nM; at IDO1 [3], 15 nM. Moreover, the EC50 on IDO1 [1] is 12 nM; in assay [2], greater than 10000 nM.

For `O[C@H](c1c(C2CC2)ccc2cncn12)[C@H]1CC[C@H](c2ccc(F)c3ccccc32)CC1` (single isomer, unassigned) [Example D137a], the IC50 at TDO came to 7400 nM; on IDO1 [3] it was 19 nM. Moreover, the figures for the half-maximal effective concentration (EC50) (at IDO1 [1]; in assay [2]) were 36 nM and greater than 10000 nM, respectively.

For the compound `Cc1ccc([C@H]2CC[C@H]([C@H](O)c3c(C4CC4)ccn4cncc34)CC2)cc1` (single isomer, unassigned) [Example C110a], the IC50 on TDO stood at 21000 nM; on IDO1 [3] it was 35 nM. For the same compound, the EC50 at IDO1 [1] was 283 nM; in assay [2], greater than 10000 nM.

For `O[C@@H](c1cc(Cl)cc2cncn12)[C@H]1CC[C@H](c2ccc3ccccc3c2)CC1` (single isomer, unassigned) [Example E104b], the figures for the IC50 on TDO and on IDO1 [3] were 1400 nM and 3500 nM, respectively. Further, the EC50 (at IDO1 [1]; in assay [2]) was greater than 10000 nM throughout.

As for `O[C@H](c1c(C2CC2)ccn2cncc12)[C@H]1CC[C@H](c2ccc(F)cc2)CC1` (single isomer, unassigned) [Example C107a], the IC50 on TDO came to 6500 nM; on IDO1 [3], 31 nM. The values for the EC50 (at IDO1 [1]; in assay [2]) were 109 nM and greater than 10000 nM, respectively.

As for `O[C@H](c1c(C2CC2)ccc2cncn12)[C@H]1CC[C@H](c2ccccc2)CC1` (single isomer, unassigned) [Example D101a], the IC50 on TDO worked out at 9200 nM; at IDO1 [3], 14 nM. Also, the EC50 at IDO1 [1] is 35 nM; in assay [2], greater than 10000 nM.

With `O[C@H](c1c(C2CC2)ccc2cncn12)[C@H]1CC[C@H](c2cccc(Cl)c2)CC1` (single isomer, unassigned) [Example D116a], the IC50 on TDO came out at 9400 nM; at IDO1 [3] it was 15 nM. For the same compound, the EC50 was 43 nM on IDO1 [1] and greater than 10000 nM in assay [2].

As to `O[C@H](c1c(C2CC2)ccn2cncc12)[C@H]1CC[C@H](c2ccccc2F)CC1` (single isomer, unassigned) [Example C108a], the IC50 at TDO is 5100 nM; on IDO1 [3], 28 nM. Moreover, the EC50 at IDO1 [1] is 112 nM; in assay [2] it was greater than 10000 nM.

Consider `N#Cc1ccc([C@H]2CC[C@H](C(O)c3c(C4CC4)ccn4cncc34)CC2)cc1` (single isomer, unassigned) [Example C106a], for which the IC50 was determined as 5200 nM at TDO and 20 nM at IDO1 [3]. Moreover, the EC50 at IDO1 [1] is 141 nM; in assay [2], greater than 10000 nM.

Consider `O[C@H](c1c(C2CC2)ccn2cncc12)[C@H]1CC[C@H](c2ccc(OC(F)(F)F)cc2)CC1` (single isomer, unassigned) [Example C105a], for which the values for the IC50 on TDO and on IDO1 [3] were 9100 nM and 48 nM, respectively. Further, the results for the concentration giving a half-maximal response (EC50) (at IDO1 [1]; in assay [2]) were 1140 nM and greater than 10000 nM, respectively.

For `Cc1cccc([C@H]2CC[C@H]([C@H](O)c3c(C4CC4)ccn4cncc34)CC2)c1` (single isomer, unassigned) [Example C111a], the IC50 at TDO is 8000 nM; on IDO1 [3] it was 28 nM. Moreover, the concentration for a half-maximal effect (EC50) at IDO1 [1] was 131 nM; in assay [2], greater than 10000 nM.

Regarding `O[C@@H](c1c(C2CC2)ccc2cncn12)[C@H]1CC[C@@H](c2ccc(OC3CCOCC3)cc2)CC1` [Example D114a, (R)-(6-cyclopropylimidazo[1,5-a]pyridin-5-yl)((1 s,4S)-4-(4-((tetrahydro-2H-pyran-4-yl)oxy)phenyl)cyclohexyl)methanol], the IC50 stood at 1700 nM on TDO and 17 nM at IDO1 [3]. Moreover, the concentration for a half-maximal effect (EC50) on IDO1 [1] was 572 nM; in assay [2] it was greater than 10000 nM.

With `O[C@H](c1c(C2CC2)ccc2cncn12)[C@H]1CC[C@H](c2ccc3sccc3c2)CC1` (single isomer, unassigned) [Example D133a], the IC50 at TDO stood at 6700 nM; at IDO1 [3], 21 nM. Also, the EC50 on IDO1 [1] is 220 nM; in assay [2], greater than 10000 nM.

Consider `O[C@H](c1c(C2CC2)ccn2cncc12)[C@H]1CC[C@H](c2cccc(F)c2)CC1` (single isomer, unassigned) [Example C109a], for which the IC50 stood at 8500 nM on TDO and 43 nM at IDO1 [3]. Besides, the EC50 on IDO1 [1] was 49 nM; in assay [2], greater than 10000 nM.

Regarding `O[C@H](c1c(C2CC2)ccc2cncn12)[C@H]1CC[C@H](c2cccc3ccccc32)CC1` (single isomer, unassigned) [Example D135a], the values for the IC50 on TDO and on IDO1 [3] were 11000 nM and 25 nM, respectively. Further, the EC50 on IDO1 [1] was 32 nM; in assay [2] it was greater than 10000 nM.

Take `Cn1cc(-c2ccc(N3CCC(C(O)c4c(C5CC5)ccn5cncc45)CC3)cc2)cn1` (stereo not drawn) [Example C152, (7-cyclopropylimidazo[1,5-a]pyridin-8-yl)(1-(4-(1-methyl-1H-pyrazol-4-yl)phenyl)piperidin-4-yl)methanol]: the IC50 is 3300 nM at TDO and 29 nM at IDO1 [3]. The concentration giving a half-maximal response (EC50) at IDO1 [1] is 520 nM; in assay [2], greater than 10000 nM.

As for `Oc1ccc([C@H]2CC[C@H](C(O)c3c(C4CC4)ccn4cncc34)CC2)cc1` (single isomer, unassigned) [Example C104a], the results for the IC50 at TDO and on IDO1 [3] were 2500 nM and 18 nM, respectively. In addition, the EC50 at IDO1 [1] is 50 nM; in assay [2], greater than 10000 nM.

As for `O[C@H](c1c(C2CC2)ccc2cncn12)[C@H]1CC[C@H](c2ccc3ccccc3c2)CC1` (single isomer, unassigned) [Example D136a], the IC50 worked out at 16000 nM at TDO and 21 nM at IDO1 [3]. In addition, the half-maximal effective concentration (EC50) was 254 nM on IDO1 [1] and greater than 10000 nM in assay [2].
